One may read the inhibition as the percentage by which the read-out fell short of the control. As a reminder, the IC50 is the concentration at which inhibition is half-maximal.

The results in this text go back to patent publication US9249125B2, “Pyrazole derivatives as p38 MAP inhibitors” (RESPIVERT LIMITED, priority 2012, dated 2016).

One series concerns the target p38 MAPKα (Homo sapiens (Human), UniProt Q16539). Kind of series: Enzyme binding assay (Kinomescan) p38 MAPKα. The note with it: read-out: % Inhibition for kinase binding at 500 nM p38 MAPKα. How it is done: (§1) The kinase enzyme binding activities of compounds disclosed herein were determined using a proprietary assay which measures active site-directed competition binding to an immobilized ligand (Fabian, M. A. et al., Nature Biotechnol., 2005, 23:329-336). These assays were conducted by DiscoverX (formerly Ambit; San Diego, Calif.). The percentage inhibition produced by incubation with a test compound is calculated relative to the non-inhibited control.

A further series deals with d-U937 cells. Kind of series: Cell viability: MTT assay. In kind it is cell-based, human. The note with it: 1 μg/mL. In a few lines: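 Differentiated U937 cells were exposed to compound at 1 or 10 μg/mL either 4 h in 5% FCS RPMI1640 or 24 h in 10% FCS RPMI1640, then given MTT for 1 h, DMSO-solubilised and read at 550 nm. Percent viability loss versus 0.5% DMSO vehicle; apparent gains appear negative.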

The next series has as its target GSK3α (Homo sapiens (Human), UniProt P49840). Description: Enzyme binding assay (Kinomescan) GSK3α. The note with it: read-out: % Inhibition for kinase binding at 500 nM GSK3α. How it is done: as §1
A further series addresses Syk (Homo sapiens (Human), UniProt P43405). Description: Enzyme binding assay (Kinomescan) Syk. The note with it: read-out: % Inhibition for kinase binding at 500 nM Syk. How it is done: as §1
The target of another series is B-Raf (Homo sapiens (Human), UniProt P15056). Description: Enzyme binding assay (Kinomescan) B-Raf. The following applies: read-out: % Inhibition for kinase binding at 500 nM B-Raf. How it is done:
(§2) These assays were conducted by DiscoverX (formerly Ambit; San Diego, Calif.). The percentage inhibition produced by incubation with a test compound is calculated relative to the non-inhibited control.

In series [1] the test system is Poly I:C-induced ICAM-1 expression in BEAS2B cells. Description: Poly I:C-induced ICAM-1 expression in BEAS2B cells. The following applies: Homo sapiens, BEAS-2B, read-out: Poly IC induced ICAM1 in BEAS2B IC50. In kind it is cell-based. In a few lines:
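BEAS2B human bronchial epithelial cells pre-incubated with compound for 2 hr, then transfected with 1 μg/mL poly I:C plus Oligofectamine. At 18 hr, surface ICAM-1 measured by cell-based ELISA (HRP, OD450–655). Signal corrected for cell number by crystal violet OD595.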

Series [2] deals with LPS-induced airways neutrophilia in mice. Description: LPS-induced neutrophil accumulation in mice. In kind it is in vivo. The note with it: Test Substance at 0.2 mg/mL, intra tracheal, dosed 8 hr pre-LPS challenge. How it is done: Non-fasted Balb/c mice are dosed by the intra tracheal route with either vehicle, or the test substance at the indicated times (within the range 2-8 hr) before stimulation of the inflammatory response by application of an LPS challenge. At T=0, mice are placed into an exposure chamber and exposed to LPS (7.0 mL, 0.5 mg/mL solution in PBS) for 30 min). After a further 8 hr the animals are anesthetized, their tracheas cannulated and BALF extracted by infusing and then withdrawing from their lungs 1.0 mL of PBS via the tracheal catheter. Total and differential white cell counts in the BALF samples are measured using a Neubaur haemocytometer. Cytospin smears of the BALF samples are prepared by centrifugation at 200 rpm for 5 min at RT and stained using a DiffQuik stain system (Dade Behring). Cells are counted using oil immersion microscopy. Data for neutrophil numbers in BAL are shown as mean±S.E.M. (standard error of the mean). The percentage inhibition of neutrophil accumulation is calculated for each treatment relative to vehicle treatment.

Series [3] concerns LPS-induced TNFα release in d-U937 cells. Description: LPS-induced TNFα release in d-U937 cells. In kind it is cell-based. The note with it: Homo sapiens, dU937, relative to 10 μg/mL BIRB796, read-out: LPS Induced Release of Cytokine in d-937 Cells TNFα REC50. In a few lines: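 PMA-differentiated (100 ng/mL, 48–72 hr) U937 cells pre-incubated with compound 2 hr, then stimulated with LPS (0.1 μg/mL, E. coli O111:B4) for 4 hr. Supernatant TNFα and IL-8 measured by sandwich ELISA; inhibition versus vehicle control, REC50 from concentration-response curve.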

The target in a further series is HCK (Homo sapiens (Human), UniProt P08631). Kind of series: Enzyme binding assay (Kinomescan) HCK. The following applies: read-out: % Inhibition for kinase binding at 500 nM HCK. How it is done:
as §1

The target of a further series is p38 MAPKγ (Homo sapiens (Human), UniProt P53778). Kind of series: Enzyme binding assay (Kinomescan) p38 MAPKγ. The following applies: read-out: % Inhibition for kinase binding at 500 nM p38 MAPKγ. How it is done:
as §2

HCK, sequence (P08631 22-526): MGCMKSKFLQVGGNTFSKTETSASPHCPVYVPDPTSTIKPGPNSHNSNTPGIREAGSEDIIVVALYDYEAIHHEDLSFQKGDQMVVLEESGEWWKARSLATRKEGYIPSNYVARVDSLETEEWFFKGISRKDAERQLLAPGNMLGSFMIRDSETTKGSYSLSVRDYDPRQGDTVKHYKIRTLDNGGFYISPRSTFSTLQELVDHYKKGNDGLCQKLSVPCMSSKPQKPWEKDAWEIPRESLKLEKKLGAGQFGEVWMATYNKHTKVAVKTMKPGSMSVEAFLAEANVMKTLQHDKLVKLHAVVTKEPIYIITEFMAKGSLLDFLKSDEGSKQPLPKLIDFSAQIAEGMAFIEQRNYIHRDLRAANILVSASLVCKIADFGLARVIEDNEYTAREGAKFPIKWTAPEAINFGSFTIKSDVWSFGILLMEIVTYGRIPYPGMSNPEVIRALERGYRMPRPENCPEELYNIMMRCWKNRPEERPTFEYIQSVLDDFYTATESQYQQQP
GSK3α, sequence (P49840 whole entry): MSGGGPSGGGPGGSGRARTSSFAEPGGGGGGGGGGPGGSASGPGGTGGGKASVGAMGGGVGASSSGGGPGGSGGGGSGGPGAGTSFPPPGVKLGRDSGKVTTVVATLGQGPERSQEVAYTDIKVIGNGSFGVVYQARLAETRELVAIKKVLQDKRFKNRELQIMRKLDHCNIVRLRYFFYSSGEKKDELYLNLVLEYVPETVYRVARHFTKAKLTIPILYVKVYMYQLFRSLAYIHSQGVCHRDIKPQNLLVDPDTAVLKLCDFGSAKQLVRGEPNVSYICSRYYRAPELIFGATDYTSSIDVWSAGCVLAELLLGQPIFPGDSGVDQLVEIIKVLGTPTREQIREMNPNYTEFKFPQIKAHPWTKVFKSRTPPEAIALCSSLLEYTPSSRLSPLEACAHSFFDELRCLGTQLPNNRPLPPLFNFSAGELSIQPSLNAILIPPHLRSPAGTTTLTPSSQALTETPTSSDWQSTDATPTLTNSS
p38 MAPKα, sequence (Q16539 whole entry): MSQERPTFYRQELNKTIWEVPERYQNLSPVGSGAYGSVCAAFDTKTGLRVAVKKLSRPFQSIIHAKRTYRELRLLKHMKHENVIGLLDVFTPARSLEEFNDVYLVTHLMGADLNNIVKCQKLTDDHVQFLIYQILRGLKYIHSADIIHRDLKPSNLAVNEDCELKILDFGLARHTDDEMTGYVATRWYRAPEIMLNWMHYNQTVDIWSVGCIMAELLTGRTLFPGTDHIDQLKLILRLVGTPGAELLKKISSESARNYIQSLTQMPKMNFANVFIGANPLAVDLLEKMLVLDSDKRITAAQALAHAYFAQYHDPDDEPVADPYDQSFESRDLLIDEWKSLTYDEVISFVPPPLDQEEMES
B-Raf, sequence (P15056 whole entry): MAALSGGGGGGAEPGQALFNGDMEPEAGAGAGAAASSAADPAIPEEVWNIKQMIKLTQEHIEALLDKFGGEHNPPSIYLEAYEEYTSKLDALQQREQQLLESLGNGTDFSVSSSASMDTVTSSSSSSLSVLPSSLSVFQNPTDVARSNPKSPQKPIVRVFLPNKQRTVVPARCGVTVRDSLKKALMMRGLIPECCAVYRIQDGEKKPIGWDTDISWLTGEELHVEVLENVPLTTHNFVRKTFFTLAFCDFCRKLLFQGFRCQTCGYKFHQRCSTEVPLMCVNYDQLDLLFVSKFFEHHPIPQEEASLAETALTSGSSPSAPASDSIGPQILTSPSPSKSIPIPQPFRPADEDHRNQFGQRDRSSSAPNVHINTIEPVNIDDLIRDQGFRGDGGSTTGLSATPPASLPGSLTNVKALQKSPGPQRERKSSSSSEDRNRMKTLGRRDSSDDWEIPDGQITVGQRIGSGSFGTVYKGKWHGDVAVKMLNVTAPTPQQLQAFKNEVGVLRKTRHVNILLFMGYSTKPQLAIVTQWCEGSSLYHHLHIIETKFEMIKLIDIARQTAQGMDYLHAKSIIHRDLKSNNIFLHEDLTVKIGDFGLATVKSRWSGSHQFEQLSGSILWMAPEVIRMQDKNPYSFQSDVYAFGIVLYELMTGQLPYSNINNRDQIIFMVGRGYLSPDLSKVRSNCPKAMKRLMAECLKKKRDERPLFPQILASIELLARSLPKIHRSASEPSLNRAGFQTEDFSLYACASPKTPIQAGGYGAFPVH
p38 MAPKγ, sequence (P53778 whole entry): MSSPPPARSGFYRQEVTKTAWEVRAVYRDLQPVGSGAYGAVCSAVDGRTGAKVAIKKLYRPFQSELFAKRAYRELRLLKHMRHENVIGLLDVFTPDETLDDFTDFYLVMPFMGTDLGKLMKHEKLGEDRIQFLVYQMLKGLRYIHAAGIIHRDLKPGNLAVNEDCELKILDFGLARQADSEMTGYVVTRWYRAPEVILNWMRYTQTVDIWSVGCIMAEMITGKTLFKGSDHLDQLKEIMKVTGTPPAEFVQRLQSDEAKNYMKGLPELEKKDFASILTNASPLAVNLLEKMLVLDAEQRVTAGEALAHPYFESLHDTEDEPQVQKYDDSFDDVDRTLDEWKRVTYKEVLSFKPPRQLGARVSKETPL

For the molecule `COCC(=O)Nc1cc(Oc2ccc(NC(=O)Nc3cc(C(C)(C)C)nn3-c3ccc(C)cc3)c3ccccc23)ccn1` [Reference Compound, N-(4-(4-(3-(3-tert-butyl-1-p-tolyl-1H-pyrazol-5-yl)ureido)naphthalen-1-yloxy)pyridin-2-yl)-2-methoxyacetamide, reference compound], the inhibition at 0.5 µM is 100% on p38 MAPKα; 84% on GSK3α; 95% on Syk; 70% on B-Raf; 100% at HCK. In the series with d-U937 cells (4 h), the “MTT Assay Cell viability at time point in d-U937 cells 4 h” value was “−ve (−ve and +ve indicate that the value is below and above respectively, the no significant effect threshold, defined as 30% inhibition at 1 μg/mL at the time point indicated.)”. Besides, the “MTT Assay Cell viability at time point in d-U937 cells 24 h” value in the series with d-U937 cells (24 h) was “+ve (−ve and +ve indicate that the value is below and above respectively, the no significant effect threshold, defined as 30% inhibition at 1 μg/mL at the time point indicated.)”. In addition, the IC50 in [1] was determined as 2.1 nM. In addition, the “% Inhibition of neutrophil accumulation in BAL” value in [2] is given as 60%. Besides, the “Neutrophil numbers in BAL (+/−SEM)” value in series [2] is 5.6 ± 0.86 ×10^5/mL. Also, in series [3], the EC50 was 0.13 nM.

With `CNC(=O)c1cc(Oc2ccc(NC(=O)Nc3ccc(Cl)c(C(F)(F)F)c3)cc2)ccn1` [Sorafenib], the inhibition at 0.5 µM was determined as 77% at p38 MAPKα; 26% at GSK3α; 28% at p38 MAPKγ; 14% at Syk; 22% on HCK.
